The source of these data is patent US4748161A, “Triterpenyl esters of organic acids and hypolipidemic agents composed of them” (Amano Pharmaceutical Co., Ltd., priority 1984, dated 1988).

Series [1] relates to serum lipids. Conditions: 0.2% in high cholesterol diet, cited from earlier work; for TG level lowering: not significant; for TC level lowering: significant.
Series [2] has as its system serum lipids and serum lipid hydroperoxide. Kind of series: Pharmacological test method B for anti-hyperlipidemic activity (serum lipids, 4 weeks feeding). In kind it is in vivo, male Wistar strain rats. As to conditions: for AI [(TC - HDL-C)/(HDL-C)] / HDL-C in serum / LPO in serum / PL in serum / TC in serum / TG in serum: 1% in hyperlipidemic diet, 4 weeks; for HDL-C rise compared with normal diet group: versus normal diet group; for change in vivo at 1 % in diet: Rattus norvegicus, po, 672 h; for change in vivo at 1 % in diet / AI Diff. / HDL-C Diff. / LPO Diff. / PL Diff. / TC % of diff. / TC Diff. / TG Diff.: versus control group. Further details: AI Diff.: unit not given here. The procedure, abridged: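 Male Wistar rats (100±1 g, n=8; hyperlipidemic control n=16) were fed for 4 weeks a diet with 1% cholesterol and 0.5% cholic acid, with test compound admixed at 1%. After a 16 h fast, serum was taken from the abdominal aorta under pentobarbital. TC, HDL-C and PL were measured by enzymatic colorimetric kits at 500 nm; TG by acetylacetone kit; LPO also measured.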

Series [3] in a line: Body weight of rats in method B. On the set-up: species or system male Wistar strain rats. Conditions: rat, in vivo. The procedure, abridged:
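Male Wistar rats (100±1 g; 8 per group, 16 in hyperlipidemic control) fed 4 weeks ad libitum on diet fortified with 1% cholesterol and 0.5% cholic acid, test compounds admixed at 1% of diet; 23±1° C, 55±5% RH. Fasted 16 h before blood sampling under pentobarbital anesthesia.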

SMILES strings stand for the structures. Where two headings read alike, the source gives them in different places.

Consider `O=C(O)C=Cc1ccccc1` [cinnamic acid], for which the “decrease of TC, TG, or PL level” value in series [1] was “no decrease”.
For the compound `COc1cc(/C=C/C(=O)O)ccc1O` [ferulic acid, 4-hydroxy-3-methoxycinnamic acid], in series [1], the TG level lowering is reported as 18.7%, the TC level lowering was 10.8% and the PL level lowering entry is recorded as “scarcely observed”.
For `COc1cc(C(=O)O)ccc1O` [vanillic acid], in series [1], the “decrease of TC, TG, or PL level” value was “no decrease”.
With `O=C(O)/C=C/c1ccc(O)cc1` [p-coumaric acid], in series [1], the TG level lowering is on record as 19.8%, the TC level lowering is listed as 9.4% and the PL level lowering result is listed as “scarcely observed”.
Take `O=C(O)/C=C/c1ccc(O)c(O)c1` [caffeic acid]: the “decrease of TC, TG, or PL level” value in series [1] was “no decrease”.
In the case of `COc1cc(C(=O)OC2CCC34CC35CCC3(C)C(C(C)CCC=C(C)C)CCC3(C)C5CCC4C2(C)C)ccc1N` (stereo not drawn) [Example 167, cycloartenyl ester of 4-amino-3-methoxy benzoic acid], in series [2], the “AI [(TC - HDL-C)/(HDL-C)]” value amounted to 2.405, the HDL-C in serum came out at 79.6 mg/dL, the LPO in serum amounted to 2.28 nmol/mL and the PL in serum is 126.4 mg/dL. Further, in series [2], the TC in serum came to 271.0 mg/dL, the TG in serum is 67.1 mg/dL and the “HDL-C rise compared with normal diet group” value is listed as “remarkable rises”. Also, in series [3], the “Body weight during feed period, 1st day” value is 105 ± 3.4 g; the “Body weight during feed period, 8th day” value came to 143 ± 10.4 g; the “Body weight during feed period, 15th day” value is 191 ± 18.4 g; the “Body weight during feed period, 22nd day” value was determined as 241 ± 21.7 g. Further, in series [3], the “Body weight during feed period, 28th day” value is recorded as 272 ± 20.8 g and the “Body weight just before blood sampling, 29th day” value was found to be 259 ± 20.6 g.
For the compound `C=C(CCC(C)C1CCC2(C)C3CCC4C(C)(C)C(OC(=O)C(C)=Cc5ccc(N)c(OC)c5)CCC45CC35CCC12C)C(C)C` (stereo not drawn) [Example 191, 24-Methylenecycloartanyl ester of 4-amino-3-methoxy-α-methylcinnamic acid], in series [2], the “AI [(TC - HDL-C)/(HDL-C)]” value was found to be 5.634, the HDL-C in serum was 28.4 mg/dL, the LPO in serum came out at 2.08 nmol/mL and the PL in serum turned out to be 117.3 mg/dL. In series [2], this compound came in with a TC in serum of 188.4 mg/dL and a TG in serum of 60.4 mg/dL. Further, in series [3], the “Body weight during feed period, 1st day” value stood at 104 ± 3.7 g; the “Body weight during feed period, 8th day” value amounted to 142 ± 9.6 g; the “Body weight during feed period, 15th day” value was determined as 188 ± 12.9 g; the “Body weight during feed period, 22nd day” value worked out at 239 ± 14.9 g. Besides, in series [3], the “Body weight during feed period, 28th day” value was determined as 268 ± 21.7 g and the “Body weight just before blood sampling, 29th day” value is given as 257 ± 20.6 g.
On to `C=C(CCC(C)C1CCC2(C)C3CCC4C(C)(C)C(OC(=O)C(C)=Cc5cc(N)ccc5OCCC)CCC45CC35CCC12C)C(C)C` (stereo not drawn) [Example 197, 24-Methylenecycloartanyl ester of 5-amino-2-propoxy-α-methylcinnamic acid], for which, in series [2], the “AI [(TC - HDL-C)/(HDL-C)]” value is 7.177, the HDL-C in serum came out at 27.1 mg/dL, the LPO in serum came out at 2.05 nmol/mL and the PL in serum was 115.5 mg/dL. Moreover, in series [2], the TC in serum came to 221.6 mg/dL and the TG in serum stood at 61.2 mg/dL. In addition, in series [3], the “Body weight during feed period, 1st day” value came to 104 ± 3.4 g; the “Body weight during feed period, 8th day” value came to 142 ± 8.4 g; the “Body weight during feed period, 15th day” value was determined as 188 ± 13.6 g; the “Body weight during feed period, 22nd day” value stood at 239 ± 16.2 g. Further, in series [3], the “Body weight during feed period, 28th day” value is 268 ± 20.8 g and the “Body weight just before blood sampling, 29th day” value is recorded as 257 ± 20.4 g.
Take `CCC(=Cc1ccc(O)c(OC)c1)C(=O)OC1CCC23CC24CCC2(C)C(C(C)CCC=C(C)C)CCC2(C)C4CCC3C1(C)C` (stereo not drawn) [Example 120, cycloartenyl ester of 4-hydroxy-3-methoxy-α-ethylcinnamic acid]: in series [2], the “AI [(TC - HDL-C)/(HDL-C)]” value came out at 7.260, the HDL-C in serum was determined as 24.6 mg/dL, the LPO in serum was found to be 2.06 nmol/mL and the PL in serum was 105.3 mg/dL. In series [2], the TC in serum came to 203.2 mg/dL, the TG in serum came out at 53.0 mg/dL, the “AI Diff.” value is reported as -14.5 and the “HDL-C Diff.” value is “+11.1 mg/dl”. In addition, in series [2], the “LPO Diff.” value is -0.76 nmol/mL, the “PL Diff.” value is -34.8 mg/dL, the “TC % of diff.” value is on record as -33.9% and the “TC Diff.” value was -104.1 mg/dL. Further, the “TG Diff.” value in series [2] is -3.5 mg/dL. Besides, in series [2] (read-out: AI % of diff.), the change in vivo at 1 % in diet was -66.6%. Moreover, the change in vivo at 1 % in diet in series [2] (read-out: HDL-C % of diff.) stood at 82.2%. Moreover, the change in vivo at 1 % in diet in series [2] (read-out: LPO % of diff.) was -27%. The change in vivo at 1 % in diet in series [2] (read-out: PL % of diff.) was -24.8%. In series [2] (read-out: TG % of diff.), the change in vivo at 1 % in diet was -6.2%. In addition, in series [3], the “Body weight during feed period, 1st day” value amounted to 105 ± 3.2 g; the “Body weight during feed period, 8th day” value is 144 ± 9.4 g; the “Body weight during feed period, 15th day” value amounted to 191 ± 18.2 g; the “Body weight during feed period, 22nd day” value was found to be 242 ± 15.7 g. In series [3], the “Body weight during feed period, 28th day” value was determined as 272 ± 20.1 g and the “Body weight just before blood sampling, 29th day” value worked out at 258 ± 23.0 g.
As for `COc1ccc(N)cc1C(=O)OC1CCC23CC24CCC2(C)C(C(C)CCC(C)=C(C)C)CCC2(C)C4CCC3C1(C)C` (stereo not drawn) [Example 173, cyclobranyl ester of 5-amino-2-methoxybenzoic acid], in series [2], the “AI [(TC - HDL-C)/(HDL-C)]” value is 3.671, the HDL-C in serum was 58.4 mg/dL, the LPO in serum was determined as 2.23 nmol/mL and the PL in serum amounted to 127.2 mg/dL. In addition, in series [2], the TC in serum amounted to 272.8 mg/dL, the TG in serum was 65.2 mg/dL and the “HDL-C rise compared with normal diet group” value is listed as “remarkable rises”. In series [3], the “Body weight during feed period, 1st day” value was found to be 105 ± 3.6 g; the “Body weight during feed period, 8th day” value is on record as 142 ± 10.5 g; the “Body weight during feed period, 15th day” value is 190 ± 18.2 g; the “Body weight during feed period, 22nd day” value is listed as 240 ± 23.5 g. In addition, in series [3], the “Body weight during feed period, 28th day” value is listed as 271 ± 24.2 g and the “Body weight just before blood sampling, 29th day” value is reported as 258 ± 23.6 g.
As to `CC(=Cc1cccc(N)c1)C(=O)OC1CCC23CC24CCC2(C)C(C(C)CCC(C)=C(C)C)CCC2(C)C4CCC3C1(C)C` (stereo not drawn) [Example 212, Cyclobranyl ester of m-amino-α-methylcinnamic acid], in series [2], the “AI [(TC - HDL-C)/(HDL-C)]” value turned out to be 4.242, the HDL-C in serum came to 37.2 mg/dL, the LPO in serum stood at 2.01 nmol/mL and the PL in serum was 112.9 mg/dL. Also, in series [2], the TC in serum was determined as 195.0 mg/dL and the TG in serum was found to be 59.7 mg/dL. Moreover, in series [3], the “Body weight during feed period, 1st day” value is 104 ± 3.3 g; the “Body weight during feed period, 8th day” value came out at 143 ± 9.2 g; the “Body weight during feed period, 15th day” value is given as 190 ± 18.6 g; the “Body weight during feed period, 22nd day” value stood at 239 ± 15.8 g. Further, in series [3], the “Body weight during feed period, 28th day” value is 268 ± 21.4 g and the “Body weight just before blood sampling, 29th day” value came out at 257 ± 19.0 g.
Consider `COc1cc(C=C(C)C(=O)OC2CCC34CC35CCC3(C)C(C(C)CCC(C)=C(C)C)CCC3(C)C5CCC4C2(C)C)ccc1O` (stereo not drawn) [Example 116, cyclobranyl ester of 4-hydroxy-3-methoxy-α-methylcinnamic acid], for which, in series [2], the “AI [(TC - HDL-C)/(HDL-C)]” value came to 1.282, the HDL-C in serum came to 61.4 mg/dL, the LPO in serum was 2.11 nmol/mL and the PL in serum amounted to 97.4 mg/dL. Besides, in series [2], the TC in serum was found to be 140.1 mg/dL, the TG in serum is 54.0 mg/dL, the “AI Diff.” value is listed as -20.48 and the “HDL-C Diff.” value is “+47.9 mg/dl”. In addition, in series [2], the “LPO Diff.” value is -0.71 nmol/mL, the “PL Diff.” value was -42.7 mg/dL, the “TC % of diff.” value was -54.4% and the “TC Diff.” value is -167.2 mg/dL. For the same compound, in series [2], the “TG Diff.” value was -6.1 mg/dL and the “HDL-C rise compared with normal diet group” value is “remarkable rises”. Besides, the change in vivo at 1 % in diet in series [2] (read-out: AI % of diff.) was -94.1%. In addition, the change in vivo at 1 % in diet in series [2] (read-out: HDL-C % of diff.) is 355%. Also, the change in vivo at 1 % in diet in series [2] (read-out: LPO % of diff.) was -25.2%. The change in vivo at 1 % in diet in series [2] (read-out: PL % of diff.) was -30.5%. For the same compound, in series [2] (read-out: TG % of diff.), the change in vivo at 1 % in diet was -10.8%. For the same compound, in series [3], the “Body weight during feed period, 1st day” value was determined as 106 ± 5.9 g; the “Body weight during feed period, 8th day” value is 146 ± 10.0 g; the “Body weight during feed period, 15th day” value stood at 193 ± 17.5 g; the “Body weight during feed period, 22nd day” value was determined as 244 ± 15.8 g. In series [3], the “Body weight during feed period, 28th day” value is on record as 273 ± 20.4 g and the “Body weight just before blood sampling, 29th day” value turned out to be 260 ± 19.0 g.
